The text below walks through data of patent US9221868B2, “Uridine di- or tri-phosphate derivatives and uses thereof” (BAR-ILAN UNIVERSITY, priority 2010, dated 2015).

For one assay, the target named is T1, P2Y4-R (Homo sapiens, UniProt P51582).
T1 construct: expressed in transfected cells; host or cells: 1321N1 astrocytoma cells
The assay can be described thus: [Ca2+]i increase in 1321N1 astrocytoma cells expressing P2Y4-R. It counts as cell-based. The settings on record: n.d.r = no detectable response up to 100 μM. The procedure: (§1) Green fluorescent protein (GFP) constructs of human P2Y2-R, P2Y4-R and P2Y6-R were expressed in 1321N1 astrocytoma cells, which lack endogenous expression of P2X- and P2Y-receptors. The respective cDNA of the receptor gene was cloned into a pEGFPN1 vector. After transfection using FuGENE 6 Transfection Reagent (Roche Molecular Biochemicals, Mannheim, Germany), the cells were selected with 0.5 mg/ml G418 (geneticine; Merck Chemicals, Darmstadt, Germany) and grown in Dulbecco's modified Eagles' medium (DMEM) supplemented with 10% fetal calf serum, 100 U/ml penicillin and […] at 37° C. and 5% CO2. The expression and cell membrane localization of the respective P2Y receptors was confirmed through the analysis of the GFP fluorescence. The functionality of the expressed GFP-labeled receptor in cells was verified by recording a change of [Ca^2+]i after stimulation with the appropriate receptor agonist.
(§2) 1321N1 astrocytoma cells transfected with the respective plasmid for P2YR-GFP expression plated on coverslips (22 mm diameter) and grown to approximately 80% density were incubated with 2 μM fura 2/AM and 0.02% pluronic acid in Na-HBS buffer (Hepes buffered saline: 145 mM NaCl, 5.4 mM KCl, 1.8 mM CaCl2, 1 mM MgCl2, 25 mM glucose, 20 mM Hepes/Tris pH 7.4) for 30 min at 37° C. The cells were superfused (1 ml/min, 37° C.) with different concentrations of nucleotide in Na-HBS buffer, and the nucleotide-induced change of [Ca^2+]i was measured by detecting the respective emission intensity of fura 2/AM at 510 nm with after 340 nm and 380 nm excitations (Ubl et al., 1998). The average maximal amplitude of the responses and the respective standard errors were calculated from the ratio of the fura 2/AM fluorescence intensities with excitations at 340 nm and 380 nm (only MT-labeled cells were analysed). Microsoft Excel (Microsoft Corp., Redmond, Wash., USA) and SigmaPlot (SPSS Inc., Chicago, Ill., USA) were used to derive the concentration-response curves and EC50 values from the average response amplitudes obtained in at least three independent experiments (Ecke et al., 2006, 2008). Only cells with a clear MT-signal and with the typical calcium response kinetics upon agonist pulse application were included in the data analysis. The GFP-tagged P2Y receptors are suitable for pharmacological and physiological studies, as previously reported (Tulapurkar et al., 2004, 2006; Zylberg et al., 2007).
(§3) In this study, analogues 13-17 were tested for their potency and selectivity at P2Y2,4,6-receptors based on measurements of increases in intracellular calcium concentrations in 1321N1 astrocytoma cells transfected with the respective plasmid, as described in Materials and Methods, and the results are summarized in Table 2.

A further assay addresses P2Y2-R (Homo sapiens, UniProt P41231). Briefly: [Ca2+]i increase in 1321N1 astrocytoma cells expressing P2Y2-R. Set-up: expressed in transfected cells; host or cells: 1321N1 astrocytoma cells. The settings on record: 1321N1 astrocytoma cells, [Ca2+]i; n.d.r = no detectable response up to 100 μM. It is filed as cell-based. The procedure:
as §1, §2, §3

Chain of P2Y2-R (P41231 whole entry): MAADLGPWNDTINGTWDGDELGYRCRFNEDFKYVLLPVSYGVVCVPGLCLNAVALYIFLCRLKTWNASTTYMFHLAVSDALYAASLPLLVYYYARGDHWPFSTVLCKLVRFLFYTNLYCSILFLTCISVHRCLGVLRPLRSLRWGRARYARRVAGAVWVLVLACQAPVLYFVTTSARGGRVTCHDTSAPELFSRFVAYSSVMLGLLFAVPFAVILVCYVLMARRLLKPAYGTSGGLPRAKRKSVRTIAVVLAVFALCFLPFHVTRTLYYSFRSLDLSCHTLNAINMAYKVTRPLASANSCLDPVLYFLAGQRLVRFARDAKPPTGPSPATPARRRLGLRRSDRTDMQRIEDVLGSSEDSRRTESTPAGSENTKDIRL
T1 sequence (P51582 whole entry): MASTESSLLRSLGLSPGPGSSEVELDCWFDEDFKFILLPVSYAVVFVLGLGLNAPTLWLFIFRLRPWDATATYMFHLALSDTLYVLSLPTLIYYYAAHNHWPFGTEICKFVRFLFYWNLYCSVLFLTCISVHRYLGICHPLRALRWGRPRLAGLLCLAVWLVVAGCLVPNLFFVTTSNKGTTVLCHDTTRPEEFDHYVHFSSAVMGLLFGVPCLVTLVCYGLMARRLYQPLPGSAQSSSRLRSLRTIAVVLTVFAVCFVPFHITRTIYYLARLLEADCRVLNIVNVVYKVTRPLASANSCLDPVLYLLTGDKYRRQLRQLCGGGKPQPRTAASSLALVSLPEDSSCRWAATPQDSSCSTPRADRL

`[BH3-][P+](O)(OCC1OC(n2cc(OC)c(=O)[nH]c2=O)C(O)C1O)OP(=O)(O)O` (single isomer, unassigned) [Analogue 13A, 5-methoxyuridine-5′-O-(α-boranodiphosphate)]: the “Potencies (EC50) at the P2Y4-R” value on P2Y4-R was “n.d.r”. The “Potencies (EC50) at the P2Y2-R” value at P2Y2-R is “n.d.r”.
